Values quoted from earlier work in patent US12649952B2, “NTRK fusion molecules and uses thereof” (Foundation Medicine, Inc., priority 2019, dated 2026).
Read-outs that look alike come from different tables or passages of the source. Values belong to the molecule of their own block, whether it stands above or below them.

Tests used:
neuroblastoma = settings: human, in vivo
neuroblastoma xenograft = settings: in vivo
[1] = tested on: lung adenocarcinoma cell line
[2] = tested on: lung adenocarcinoma with KRAS mutation; settings: mouse, in vivo
solid tumors [3] = settings: Phase 1, solid tumors
tumor xenograft models = settings: variety of preclinical tumor xenograft models
TrkA = TrkA (Homo sapiens, UniProt P04629); settings: for inhibition of Ntrk1 / NTRK1: result in words
solid tumors [4] = settings: Phase 1, 56 solid tumor patients
myeloid leukemia cells [5] = tested on: myeloid leukemia cells
Ntrk1/Hsp90 [6] = settings: results in degradation and depletion of Ntrk1
Ntrk1/Hsp90 [7] = tested on: Ntrk1/Hsp90
myeloid leukemia cells [8] = tested on: myeloid leukemia cells; remark: listed apart in the source
[9] = tested on: NTRK fusion-positive cancers
NTRK gene fusions = settings: after further follow-up, expanded patient population (n=159)
preclinical models = settings: variety of preclinical models
[10] = tested on: NTRK fusion-positive AML cell lines
[11] = tested on: solid tumors with NTRK fusions; settings: monotherapy; adult and pediatric patients, with and without CNS metastases
[12] = tested on: preclinical tumor models including a xenograft model of lung cancer; settings: in vivo
[13] = tested on: NTRK1 fusion-positive tumors; settings: human, in vivo
NGF dimer = NGF dimer (Homo sapiens, UniProt P01138); settings: read-out: KD for binding the NGF dimer
Sequence of NGF dimer (P01138 122-241): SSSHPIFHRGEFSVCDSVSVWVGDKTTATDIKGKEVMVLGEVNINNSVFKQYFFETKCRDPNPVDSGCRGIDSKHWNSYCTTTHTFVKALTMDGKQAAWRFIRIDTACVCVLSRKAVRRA

Sequence of TrkA (P04629 33-796): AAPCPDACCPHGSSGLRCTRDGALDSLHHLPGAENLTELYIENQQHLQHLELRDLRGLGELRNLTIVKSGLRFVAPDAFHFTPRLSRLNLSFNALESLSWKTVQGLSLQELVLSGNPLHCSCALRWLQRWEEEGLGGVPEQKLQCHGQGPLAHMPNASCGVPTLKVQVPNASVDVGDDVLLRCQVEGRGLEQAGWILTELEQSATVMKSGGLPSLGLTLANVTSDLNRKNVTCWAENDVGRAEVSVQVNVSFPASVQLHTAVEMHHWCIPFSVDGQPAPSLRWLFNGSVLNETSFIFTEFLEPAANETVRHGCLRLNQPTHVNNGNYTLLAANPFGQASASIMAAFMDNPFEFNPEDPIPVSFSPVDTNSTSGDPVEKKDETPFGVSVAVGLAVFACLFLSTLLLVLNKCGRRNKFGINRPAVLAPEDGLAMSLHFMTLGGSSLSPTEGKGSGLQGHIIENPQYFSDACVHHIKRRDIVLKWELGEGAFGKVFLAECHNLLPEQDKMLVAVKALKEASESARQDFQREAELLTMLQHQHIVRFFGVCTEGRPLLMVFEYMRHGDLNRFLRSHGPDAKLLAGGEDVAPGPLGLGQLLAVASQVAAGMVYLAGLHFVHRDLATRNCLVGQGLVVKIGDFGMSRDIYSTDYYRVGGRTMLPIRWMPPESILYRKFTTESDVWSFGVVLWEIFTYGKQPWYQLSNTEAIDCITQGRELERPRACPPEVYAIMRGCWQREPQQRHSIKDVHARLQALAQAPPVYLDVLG

Structure (SMILES): C[C@]12O[C@H](C[C@]1(O)CO)n1c3ccccc3c3c4c(c5c6ccccc6n2c5c31)CNC4=O [lestaurtinib, (5S,6S,8R)-6-hydroxy-6-(hydroxymethyl)-5-methyl-7,8,14,15-tetrahydro-5H-16-oxa-4b,8a,14-triaza-5,8-methanodibenzo[b,h]cycloocta[jkl]cyclopenta[e]-as-indacen-13(6H)-one]
efficacy in clinical trials (neuroblastoma): effective
tumor growth (neuroblastoma xenograft): inhibit tumor growth

Structure (SMILES): COC(=O)[C@@]1(O)C[C@H]2O[C@]1(C)n1c3ccccc3c3c4c(c5c6ccccc6n2c5c31)C(=O)NC4 [K252a, (9S-(9a, 108,12a))-2,3,9,10,11,12-hexahydro-10-hydroxy-10-(methoxycarbonyl)-9-methyl-9,12-epoxy-1H-diindolo [1,2,3-fg: 3′,2′,1′-kl] pyrrolo [3,4-i][1,6] benzodiazocin-1-one]
activation of the anti-apoptotic protein Akt [1]: block activation
cell death [1]: promote cell death
tumor cell growth [1]: reduce tumor cell growth

Structure (SMILES): CNC(=O)c1nn(C)c2c1C(C)(C)Cc1cnc(Nc3ccc(N4CCN(C)CC4)cc3)nc1-2 [PHA-848125]
tumor growth [2]: inhibit tumor growth
partial response (solid tumors [3]): 2/14
stable disease (solid tumors [3]): 9/28
anti-tumor effect (tumor xenograft models): anti-tumor effect

Structure (SMILES): CO[C@@H](C(=O)N1Cc2n[nH]c(NC(=O)c3ccc(N4CCN(C)CC4)cc3)c2C1)c1ccccc1 [danusertib]
inhibition of Ntrk1 / NTRK1 (TrkA): inhibit Ntrk1
objective response (solid tumors [4]): objective response in one non-small cell lung cancer patient
tumor regression (solid tumors [4]): tumor regression in an ovarian cancer patient

Structure (SMILES): CO[C@H]1/C=C\C=C(/C)C(=O)NC2=CC(=O)C(NCCN(C)C)=C(C[C@@H](C)C[C@H](OC)[C@H](O)[C@@H](C)/C=C(\C)[C@@H]1OC(N)=O)C2=O [17-DMAG]
growth of myeloid leukemia cells (myeloid leukemia cells [5]): reduced the growth of myeloid leukemia cells
Ntrk1/Hsp90 binding (Ntrk1/Hsp90 [6]): disrupted Ntrk1/Hsp90 binding
Ntrk1/Hsp90 binding (Ntrk1/Hsp90 [7]): disrupted Ntrk1/Hsp90 binding
Ntrk1 level (Ntrk1/Hsp90 [7]; consequence of disrupted Ntrk1/Hsp90 binding): degradation and depletion of Ntrk1
growth of myeloid leukemia cells (myeloid leukemia cells [8]): reduced the growth of myeloid leukemia cells

Structure (SMILES): C[C@@H]1CCc2ncc(F)cc2[C@H]2CCCN2c2ccn3ncc(c3n2)C(=O)N1 [LOXO-195]
confirmed complete or partial response ([9]; 10 of 29 evaluable patients, RECIST 1.1, NTRK fusions resistant to other TRK-targeted therapeutics): 34%
safety and tolerability ([9]; solid tumor cancer patients with NTRK fusions resistant to other TRK-targeted therapeutics): safe, tolerable

Structure (SMILES): CC(C)Oc1cc(Nc2nc(N[C@@H](C)c3ccc(F)cn3)ncc2Cl)n[nH]1 [AZ-23, 5-chloro-N-[(1S)-1-(5-fluoropyridin-2-yl)ethyl]-N′-(5-propan-2-yloxy-1H-pyrazol-3-yl)pyrimidine-2,4-diamine]
tumor growth (neuroblastoma xenograft): inhibit tumor growth

Structure (SMILES): O=C(Nc1cnn2ccc(N3CCC[C@@H]3c3cc(F)ccc3F)nc12)N1CC[C@H](O)C1 [Larotrectinib, larotrectinib]
overall response rate (ORR) (NTRK fusion cancers; NTRK fusion cancers, current clinical trials): 75%
responses ongoing, share of patients (NTRK fusion cancers; at 12 months of treatment): 75-81%
CR observed, share of patients (NTRK fusion cancers; combined Phase 1, Phase 1/2 and Phase 2 data): 17%
ORR (NTRK fusion cancers; combined Phase 1, Phase 1/2 and Phase 2 data, adult and pediatric patients, various solid tumors harboring NTRK fusions (88/109)): 81%
intracranial efficacy (NTRK fusion cancers; individuals with NTRK fusion-positive gliomas or brain metastases): demonstrated
median duration of response (NTRK gene fusions): 35.2 (22.7—not evaluable [NE]) months
overall response rate (NTRK gene fusions): 79%

Structure (SMILES): CO[C@]1(COC(=O)CCNC(=O)[C@@H](N)CCCCN)C[C@H]2O[C@]1(C)n1c3ccccc3c3c4c(c5c6ccccc6n2c5c31)C(=O)NC4 [CEP-2563]
anti-tumor activity (preclinical models): anti-tumor activity

Structure (SMILES): CN1CCN(c2ccc(C(=O)Nc3n[nH]c4ccc(Cc5cc(F)cc(F)c5)cc34)c(NC3CCOCC3)c2)CC1 [entrectinib, N-[5-(3,5-Difluorobenzyl)-1H-indazol-3-yl]-4-(4-methyl-1-piperazinyl)-2-(tetrahydro-2H-pyran-4-ylamino)benzamide]
sensitivity of cell lines [10]: preclinical sensitivity
clinical benefit [11]: Clinical benefit

inhibition of Ntrk1 / NTRK1 (TrkA): inhibit NTRK1
Structure (SMILES): Nc1ncc(-c2cnn(C3CCNCC3)c2)cc1-c1nc2ccccc2o1 [KRC-108]
antiproliferative activity [12]: antiproliferative activity

Structure (SMILES): C[C@@H](Oc1cc(-c2cnn(C3CCNCC3)c2)cnc1N)c1c(Cl)ccc(F)c1Cl [crizotinib]
clinical responses [13]: Durable clinical responses

IC50 (TrkA): < 1 nM
Structure (SMILES): NC(=O)Nc1snc(S[C@@H]2CCCCc3ccccc32)c1C(N)=O [isothiazole 5n]

Kd (NGF dimer): ~1000 nM
Structure (SMILES): Cc1cc2nc3c(=O)[nH]c(=O)nc-3n(C)c2cc1C=O [Ro 08-2750]
